In article PMC10439952, “JT002, a small molecule inhibitor of the NLRP3 inflammasome for the treatment of autoinflammatory disorders” (Scientific Reports, 2023):

Test system: Nlrp3 A350V/+ CreT knock-in mice
Assay: Nlrp3 A350V/+ CreT knock-in mouse model of Muckle Wells syndrome
Format: in vivo
Details: 30 mg/kg orally once daily
Description: The effect of JT002 treatment on systemic and hepatic inflammation and hepatic fibrosis was evaluated in vivo using a murine Nlrp3 knock-in (KI) model of human Muckle Wells syndrome. In humans, mutation of alanine 352 to valine (A352V) in NLRP3 results in the constitutively active NLRP3 inflammasome which leads to excessive cytokine production and a clinical presentation characteristic of MWS[11]. The Nlrp3^A350V/+ CreT KI murine model (Nlrp3 KI model) contains a conditional A350V autosomal-dominant mutation that is analogous to the human A352V mutation[13],[23],[25]. In this model, mutant Nlrp3 expression occurs only in mice expressing Cre recombinase, which is inducible through the administration of tamoxifen, thus allowing for temporal control of the gain-of-function mutant Nlrp3. In vehicle-control mice, tamoxifen-induced activation of mutant Nlrp3 produces an inflammatory and fibrotic phenotype consisting of weight loss, increased liver weight, elevated liver alanine aminotransferase (ALT), systemic and hepatic neutrophilia, increased hepatic collagen deposition, and increased numbers of activated hepatic stellate cells (HSCs)[13],[23],[25]. In the Nlrp3^A350V/+ CreT study, vehicle or 30 mg/kg JT002 (n = 4/group) was dosed orally once daily starting one day prior to the first administration of tamoxifen. One animal from each group was found dead on day 4 and day 11 from the JT002 dosed group and the vehicle group, respectively, leaving only 3 animals per group. […] Serum levels of ALT in vehicle-treated mice averaged 186 U/L while ALT levels were reduced to 93 U/L in mice administered JT002 (Fig. 4C).
Total RNA was isolated from liver tissue (~ 50 mg) via syringe homogenization in TRIzol™ and cDNA synthesized using the iScript™ cDNA Synthesis kit (Biorad, Hercules, CA, USA). Real-time PCR was performed using TaqMan Fast Advanced Master Mix (ThermoFisher) and samples were amplified using QuantStudio-7 (ThermoFisher) in accordance with manufacturers’ instructions. The following TaqMan Gene Expression Assays (cat. no. 4331182, Applied Biosystems, Foster City, CA) were used: Acta2, Mm00725412_s1; Ctgf, Mm01192933_g1; Mpo, Mm01298424_m1; Pycard, Mm00445747_g1; Casp1, Mm00438023_m1; Il1b assay ID Mm00434228_m1.
Nlrp3^A350V/+ CreT knock-in mice were provided by Hal M. Hoffman, University of California, San Diego, USA. The study was performed using two randomized groups of male and female Nlrp3^A350V/+ CreT mice (n = 4/group) between 6- and 8-weeks of age at the start of the study. Vehicle (0.5% methyl cellulose, 0.25% Tween 80 in 50 mM NaH2PO4/Na2HPO4 at pH 7.8) or JT002 at 30 mg/kg was administered orally once daily for 30 days starting on Day 1. Tamoxifen (free base) (MP Biomedicals, Solon, OH, USA) was prepared in 90% sunflower seed oil and 10% ethanol and administered at 50 mg/kg intraperitoneally (IP) daily for 4 consecutive days, starting on Day 1, followed by a booster injection on Day 16. Mice were weighed every day to monitor compound activity. On Day 29, a submandibular cheek bleed was performed to obtain whole blood for total blood cell counting. Mice were euthanized on Day 30 and blood and livers were harvested and stored appropriately. Tissue specimens were fixed in 10% formalin and subsequently embedded in paraffin for histopathological assessments, or snap frozen in liquid N2 and stored in low temperature freezers. Complete blood counts and differentials were conducted on a HemaVet Auto Blood Analyzer (Drew Scientific, Miami Lakes, FL, USA). In vitro quantitative determination of alanine aminotransferase (ALT) in serum was performed using the Infinity™ ALT (GPT) Liquid Stable Reagent (cat. n. TR71121, Fisher Diagnostics, Middletown, VA, USA). Sirius Red staining and immunohistochemistry for hepatic MPO and αSMA were performed as described previously.

Q: With CO[C@@H]1COc2c(S(=O)(=O)NC(=O)Nc3c4c(cc5c3CCC5)CCC4)cnn2C1 [JT002] as the compound, how does the body weight loss read?
A: The body weight loss was “prevented the body weight loss”.

Q: And the circulating eosinophil count?
A: The circulating eosinophil count was “strong trend for reduced”.

Q: What about the circulating neutrophil count of the same compound?
A: The circulating neutrophil count was “significant normalization”.

Q: And the “circulating total white blood cell count” value?
A: Its value is “significant normalization”.

Q: And the “degree of liver inflammation by H&E staining” value?
A: Its value is “visible reduction in the degree of inflammation”.

Q: And the “hepatic collagen content (Picrosirius red staining)” value?
A: The value was “considerably reduced”.

Q: And the “hepatic gene expression of Acta2” value?
A: The value was “substantially downregulated”.

Q: What about the “hepatic gene expression of Casp1” value of the same compound?
A: The value was “substantially reduced”.

Q: What about the “hepatic gene expression of Ctgf” value of the same compound?
A: Its value is “substantially downregulated”.

Q: What about the “hepatic gene expression of Il1b” value of the same compound?
A: Its value is “substantially reduced”.

Q: And the “hepatic gene expression of Mpo” value?
A: Its value is “substantially reduced”.

Q: And the “hepatic gene expression of Pycard (ASC)” value?
A: Its value is “substantially reduced”.

Q: What about the “reduction in hepatic immunostaining for αSMA (HSC activation)” value of the same compound?
A: The value was 93%.

Q: And the “reduction of hepatic neutrophil recruitment (myeloperoxidase immunostaining)” value?
A: The value was 91%.

Q: What about the “liver weight as a percent of body weight” value (vehicle 9.4) of the same compound?
A: The value was 5.7%.

Q: And the “serum ALT level” value (vehicle 186 U/L)?
A: Its value is 93 U/L.
